From US20090275474A1, “PESTICIDAL APPLICATIONS OF DIMETHYL CYANAMIDE” (Metbro Distributing L.P., priority 2008, published 2009)
Entries after “also recorded” stand apart in the source; their conditions may differ.

Key:
Assay type in all cases: in vivo
[1] = test system: dorylaimida (predatory, not plant parasitic nematodes); assay: Example 2 pot test, soil populations of dorylaimida; details: soil drench 20-150 mgs. A.I./kg soil
Procedure: (§1) Dimethyl cyanamide and diisopropyl cyanamide (both obtained from Aldrich) were delivered in aqueous preparations (1.25% active ingredient) (A.I.) prepared immediately before use by diluting in demineralized water while stirring with a magnetic stirrer. […] Each compound was delivered at rates of 0, 20, 40, 60, 80, 100, and 150 mgs. A.I./kg soil—equivalent to […].
(§2) Each treatment was delivered by drenching in 100 mL aqueous volume onto the soil surface in pots (10-cm diam.; PVC) containing 1 kg soil. The soil (silt loam; pH 6.2; cec<10 meq/100 gm soil; org. matter<1.0%) was from a cotton field severely infested with the reniform nematode [Rotylenchulus reniformis]. Immediately after treatment the pots were covered by a thick (1.5 mil) clear low density polyethylene bag held tight against the outer wall of the pot by a rubber band. Eleven days after application the bags were removed and soil samples were taken from every pot (experimental unit) for nematological analysis (salad bowl incubation technique). […] Final root and soil nematode populations were determined and plant growth parameters (number and height of plants, weights of shoots and roots, root condition indices) were recorded. […]

[2] = test system: beneficial microbivorous nematodes; assay: Example 2 pot test, microbivorous nematodes in soil; details: soil drench 20-150 mgs. A.I./kg soil
Procedure: as §1, §2

[3] = test system: "Rowden" cotton (Gossipyum hirsutum); assay: Example 2 pot test, growth and root health of cotton plants in nematode-infested soil
Procedure: as §1
Each treatment was delivered by drenching in 100 mL aqueous volume onto the soil surface in pots (10-cm diam.; PVC) containing 1 kg soil. The soil (silt loam; pH 6.2; cec<10 meq/100 gm soil; org. matter<1.0%) was from a cotton field severely infested with the reniform nematode [Rotylenchulus reniformis]. Immediately after treatment the pots were covered by a thick (1.5 mil) clear low density polyethylene bag held tight against the outer wall of the pot by a rubber band. Eleven days after application the bags were removed and soil samples were taken from every pot (experimental unit) for nematological analysis (salad bowl incubation technique). Each pot was then planted with five seeds of nematode-susceptible “Rowden” cotton (Gossipyum hirsutum) and the resulting plants were grown for eight weeks, at which time the plants were removed and soil samples were taken from each pot. Final root and soil nematode populations were determined and plant growth parameters (number and height of plants, weights of shoots and roots, root condition indices) were recorded.
(§3) Experimental design: Randomized complete block with seven replications/treatment.
Statistical analyses: ANOVA and Fischer's least significant difference [FLSD] at p
0.05. Regression analyses.

[4] = test system: dorylaimida (predatory, not plant parasitic nematodes); assay: Example 1 pot test, soil populations of dorylaimida; details: soil drench 25-200 mg A.I./kg soil
Procedure: (§4) Hydrogen cyanamide (Dormex® formulation, Dormex Corp.) and dimethyl cyanamide (Aldrich) were delivered in aqueous preparations (1.25% active ingredient) (A.I.) prepared immediately before use by diluting in demineralized water while stirring with a magnetic stirrer. Each compound was delivered at rates of 0, 25, 50, 75, 100, 150, and 200 mg A.I./kg soil—equivalent to 0, 50, 100, 150, 200, 300, and 400 lbs A.I./acre.
as §2, with “drenching the compound” for “drenching”, “nematode (Rotylenchulus reniformis).” for “nematode [Rotylenchulus reniformis].”, “covered with” for “covered by”, “(number &” for “(number and”

[5] = test system: reniform nematode (Rotylenchulus reniformis); assay: Example 1 pot test, soil drench, reniform nematode in soil and soybean roots; details: for nematicidal activity against the reniform nematode in soil and soybean roots: soil drench 25-200 mg A.I./kg soil, soil sampled 11 days after application and after eight weeks of soybean growth, FIGS. 1-6
Procedure: as §4
Each treatment was delivered by drenching the compound in 100 mL aqueous volume onto the soil surface in pots (10-cm diam.; PVC) containing 1 kg soil. The soil (silt loam; pH 6.2; cec<10 meq/100 gm soil; org. matter<1.0%) was from a cotton field severely infested with the reniform nematode (Rotylenchulus reniformis). Immediately after treatment the pots were covered with a thick (1.5 mil) clear low density polyethylene bag held tight against the outer wall of the pot by a rubber band. Eleven days after application the bags were removed and soil samples were taken from every pot (experimental unit) for nematological analysis (salad bowl incubation technique). Each pot was then planted with five seeds of nematode-susceptible “Hutcheson” soybean (glycine max) and the resulting plants were grown for eight weeks, at which time the plants were removed and soil samples were taken from each pot. Final root and soil nematode populations were determined and plant growth parameters (number & height of plants, weights of shoots and roots, root condition indices) were recorded.
Major pests: The reniform nematode [Rotylenchulus reniformis].
as §3
(§5) Statistical analyses: ANOVA and Fischer's least significant difference [FLSD] at p 0.05. Regression analyses.

[6] = test system: reniform nematode [Rotylenchulus reniformis]; assay: Example 2 pot test, soil drench, reniform nematode in soil; details: soil drench 20-150 mgs. A.I./kg soil; FIGS. 7-10
Procedure: as §1, §2

[7] = test system: "Hutcheson" soybean (glycine max); assay: Example 1 pot test, growth of soybean plants in nematode-infested soil; details: after eight weeks of growth
Procedure: as §4
as §2, with “drenching the compound” for “drenching”, “nematode (Rotylenchulus reniformis).” for “nematode [Rotylenchulus reniformis].”, “covered with” for “covered by”, “(number &” for “(number and”

[8] = test system: Yellow nutsedge [Cyperus esculentus], crabgrass [Digitaria sanguinalis], sicklepod [Senna obtusifolia], morningglory [Ipomoea spp], and other annual weeds; assay: Example 4 herbicidal pot test, dimethyl cyanamide alone and in combination with EPTC, weed counts
Procedure: Dimethyl cyanamide was delivered in a 5% aqueous solution. The herbicide EPTC [ethyl n-propyl thiocarbamate] was delivered in an aqueous emulsion containing 0.1192% A.I. Both formulations were prepared immediately before use by diluting or mixing [a concentrated formulation?] in demineralized water while stirring with a magnetic stirrer. The dimethyl cyanamide was obtained from Aldrich. The EPTC used was a commercial formulation [Eptam® herbicide, Gowan].
Dimethyl cyanamide was applied at rates of 0, 50, 100, 200, 300, and 400 mg A.I./kg soil—equivalent to 0, 100, 200, 400, 600, and 800 lbs A.I./acre, respectively. EPTC was delivered at 0 and 3.576 mg/kg soil, equivalent to 0 and approximately 7 lbs. A.I./acre. All possible combinations of the two compounds at their corresponding rates were included in the experiment.
Each treatment was delivered by drenching in 100 mL aqueous volume onto the soil surface in pots [10-cm diam.; PVC] containing 1 kg soil. The soil was from a cotton field [silt loam; ph 6.2; cec<10 meq/100 gm soil; org. matter<1.0%1. Immediately after treatment the pots were covered by a thick [1.5 mil] clear low density polyethylene bag held tight against the outer wall of the pot by a rubber band. Six days after application the bags were removed. Weed counts were taken from each pot [experimental unit] at 6, 12, 17, 47, and 62 days after application of the treatments. […]

[9] = test system: beneficial microbivorous nematodes; assay: Example 1 pot test, microbivorous nematodes in soil; details: soil drench 25-200 mg A.I./kg soil
Procedure: as §4
as §2, with “drenching the compound” for “drenching”, “nematode (Rotylenchulus reniformis).” for “nematode [Rotylenchulus reniformis].”, “covered with” for “covered by”, “(number &” for “(number and”

[10] = test system: Yellow nutsedge [Cyperus esculentus], crabgrass [Digitaria sanguinalis], sicklepod [Senna obtusifolia], morningglory [Ipomoea spp.], and other annual weeds; assay: Example 3 herbicidal pot test, soil drench, weed counts; details: for herbicidal activity against all weed species tested: soil drench 100-800 mgs. A.I./kg soil, weed counts 11, 19, 26 and 32 days after application, FIGS. 11-12
Procedure: Hydrogen cyanamide and dimethyl cyanamide were delivered in aqueous 5% solutions prepared immediately before use by diluting in demineralized water while stirring with a magnetic stirrer. Both chemicals were obtained from Aldrich. Each compound was delivered at rates of 0, 100, 200, 300, 400, 600, and 800 mgs. A.I./kg soil—equivalent to 0, 200, 400, 600, 800, 1200, and 1600 lbs A.I./acre.
Each treatment was delivered by drenching in 100 mL aqueous volume onto the soil surface in pots [10-cm diam.; PVC] containing 1 kg soil. The soil was from a cotton field [silt loam; ph 6.2; cec<10 meq/100 gm soil; org. matter<1.0%]. Immediately after treatment the pots were covered by a thick [1.5 mil] clear low density polyethylene bag held tight against the outer wall of the pot by a rubber band. Eleven days after application the bags were removed. Weed counts were taken from each pot [experimental unit] at 11, 19, 26 and 32 days after application of the treatments.
Major pests: Yellow nutsedge [Cyperus esculentus], crabgrass [Digitaria sanguinalis], sicklepod [Senna obtusifolia], morningglory [Ipomoea spp.], and other annual weeds.
Experimental design: Randomized complete block with seven replications/treatments.
as §5

SMILES | soil populations of dorylaimida [1] | soil populations of beneficial microbivorous nematodes [2] | root health as indicated by root appearance indices ([3]; dimethyl cyanamide: two highest rates, diisopropyl cyanamide: any rate) | number of cotton plants/pot, dimethyl cyanamide vs diisopropyl cyanamide ([3]; in vivo) | cotton plant heights and shoot and root weights ([3]; two highest rates, after eight weeks) | soil populations of dorylaimida [4] | effectiveness as a nematicide relative to hydrogen cyanamide ([5]; considered in terms of the rates of cyanamide anion applied) | overall results on delivery at the same rate (kg/ha) as hydrogen cyanamide ([5]; same weight rate, hydrogen cyanamide contains approximately 1.66 times as much cyanamide (NCN group)) | nematicidal activity against the reniform nematode in soil and soybean roots [5] | nematicidal activity against the reniform nematode in soil [6] | soybean plant height and weights of shoots and roots, compared with pots treated with hydrogen cyanamide [7] | herbicidal activity of dimethyl cyanamide during the initial counts in the presence of EPTC [8] | effect on beneficial microbivorous nematodes [9] | herbicidal activity compared with hydrogen cyanamide ([10]; dose-response expressed in terms of mg of CN added to the soil, one exception (sicklepod)) | herbicidal activity against all weed species tested [10] | root populations of the reniform nematode, compared between the two compounds ([5]; soybean roots after eight weeks, hydrogen cyanamide vs dimethyl cyanamide)
CC(C)N(C#N)C(C)C [diisopropyl cyanamide, reference compound] | either reduced or not affected | either reduced or not affected |  |  |  |  |  |  |  |  |  |  |  |  |  | 
CN(C)C#N [dimethyl cyanamide, Dimethyl cyanamide] | either reduced or not affected | either reduced or not affected | markedly improved | higher | concomitant increase | similarly reduced | more effective as a nematicide than hydrogen cyanamide | very similar results overall | nematicidal, resulting in suppression or elimination of the reniform nematode in soil and soybean roots; also recorded: powerful nematicide | nematicidal, resulting in suppression or elimination of the reniform nematode in soil; also recorded: powerful nematicide | taller and with heavier shoots and roots | almost “masked” by that of EPTC | not significantly affected | superior to hydrogen cyanamide as a herbicide | herbicidal against all weed species tested; also recorded: considerable herbicidal activity equivalent to or better than that shown by hydrogen cyanamide | 
N#CN [hydrogen cyanamide, Hydrogen cyanamide, reference compound] |  |  |  |  |  | similarly reduced |  |  | nematicidal, resulting in suppression or elimination of the reniform nematode in soil and soybean roots |  |  |  | not significantly affected |  | herbicidal against all weed species tested | lower
